Tests used:
KDR = target: T1, KDR (Homo sapiens, UniProt P35968); experiment: Off-Target Kinase Profiling; assay type: biochemical; conditions: 10 μM; ATP near Km
T1 construct: purchased Millipore, Inc. (KinaseProfiler service)
Procedure, shortened: (§1)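 Profiling uses one compound concentration (10 μM) and ATP adjusted to approximately each kinase's Km. Duplicate measurements are averaged and expressed as percent of the uninhibited control.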

MKNK2 = target: T2, MKNK2 (Homo sapiens, UniProt Q9HBH9); experiment: Off-Target Kinase Profiling; assay type: biochemical; conditions: 10 μM; ATP near Km
T2 construct: purchased Millipore, Inc. (KinaseProfiler service)
Procedure, shortened: as §1

Fyn = target: T3, Fyn (Homo sapiens, UniProt P06241); experiment: Off-Target Kinase Profiling; assay type: biochemical; conditions: 10 μM; ATP near Km
T3 construct: purchased Millipore, Inc. (KinaseProfiler service)
Procedure, shortened: as §1

NEK11 = target: T4, NEK11 (Homo sapiens, UniProt Q8NG66); experiment: Off-Target Kinase Profiling; assay type: biochemical; conditions: 10 μM; ATP near Km
T4 construct: purchased Millipore, Inc. (KinaseProfiler service)
Procedure, shortened: as §1

ULK2 = target: T5, ULK2 (Homo sapiens, UniProt Q8IYT8); experiment: Off-Target Kinase Profiling; assay type: biochemical; conditions: 10 μM; ATP near Km
T5 construct: purchased Millipore, Inc. (KinaseProfiler service)
Procedure, shortened: as §1

PKCtheta = target: T6, PKCtheta (Homo sapiens, UniProt Q04759); experiment: Off-Target Kinase Profiling; assay type: biochemical; conditions: 10 μM; ATP near Km
T6 construct: purchased Millipore, Inc. (KinaseProfiler service)
Procedure, shortened: as §1

GSK3beta = target: T7, GSK3beta (Homo sapiens, UniProt P49841); experiment: Off-Target Kinase Profiling; assay type: biochemical; conditions: 10 μM; ATP near Km
T7 construct: purchased Millipore, Inc. (KinaseProfiler service)
Procedure, shortened: as §1

PKCbetaI = target: T8, PKCbetaI (Homo sapiens, UniProt P05771); experiment: Off-Target Kinase Profiling; assay type: biochemical; conditions: 10 μM; ATP near Km
T8 construct: purchased Millipore, Inc. (KinaseProfiler service)
Procedure, shortened: as §1

DYRK2 = target: T9, DYRK2 (Homo sapiens, UniProt Q92630); experiment: Off-Target Kinase Profiling; assay type: biochemical; conditions: 10 μM; ATP near Km
T9 construct: purchased Millipore, Inc. (KinaseProfiler service)
Procedure, shortened: as §1

HIPK1 = target: T10, HIPK1 (Homo sapiens, UniProt Q86Z02); experiment: Off-Target Kinase Profiling; assay type: biochemical; conditions: 10 μM; ATP near Km
T10 construct: purchased Millipore, Inc. (KinaseProfiler service)
Procedure, shortened: as §1

GSK3alpha = target: T11, GSK3alpha (Homo sapiens, UniProt P49840); experiment: Off-Target Kinase Profiling; assay type: biochemical; conditions: 10 μM; ATP near Km
T11 construct: purchased Millipore, Inc. (KinaseProfiler service)
Procedure, shortened: as §1

Axl = target: T12, Axl (Homo sapiens, UniProt P30530); experiment: Off-Target Kinase Profiling; assay type: biochemical; conditions: 10 μM; ATP near Km
T12 construct: purchased Millipore (KinaseProfiler service)
Procedure, shortened: as §1

IKKbeta = target: T13, IKKbeta (Homo sapiens, UniProt O14920); experiment: Off-Target Kinase Profiling; assay type: biochemical; conditions: 10 μM; ATP near Km
T13 construct: purchased Millipore, Inc. (KinaseProfiler service)
Procedure, shortened: as §1

Txk = target: T14, Txk (Homo sapiens, UniProt P42681); experiment: Off-Target Kinase Profiling; assay type: biochemical; conditions: 10 μM; ATP near Km
T14 construct: purchased Millipore, Inc. (KinaseProfiler service)
Procedure, shortened: as §1

Plk2 = target: T15, Plk2 (Homo sapiens, UniProt Q9NYY3); experiment: Off-Target Kinase Profiling; assay type: biochemical; conditions: 10 μM; ATP near Km
T15 construct: purchased Millipore, Inc. (KinaseProfiler service)
Procedure, shortened: as §1

IR Activated = target: T16, IR Activated (Homo sapiens, UniProt P06213); experiment: Off-Target Kinase Profiling; assay type: biochemical; conditions: 10 μM; ATP near Km
T16 construct: purchased Millipore, Inc. (KinaseProfiler service)
Procedure, shortened: as §1

p38beta = target: T17, p38beta (Homo sapiens, UniProt Q15759); experiment: Off-Target Kinase Profiling; assay type: biochemical; conditions: 10 μM; ATP near Km
T17 construct: purchased Millipore, Inc. (KinaseProfiler service)
Procedure, shortened: as §1

ARK5 = target: T18, ARK5 (Homo sapiens, UniProt O60285); experiment: Off-Target Kinase Profiling; assay type: biochemical; conditions: 10 μM; ATP near Km
T18 construct: purchased Millipore (KinaseProfiler service)
Procedure, shortened: as §1

MAPKAP-K5 = target: T19, MAPKAP-K5 (Homo sapiens, UniProt Q8IW41); experiment: Off-Target Kinase Profiling; assay type: biochemical; conditions: 10 μM; ATP near Km
T19 construct: purchased Millipore, Inc. (KinaseProfiler service)
Procedure, shortened: as §1

CAMK2b = target: T20, CAMK2b (Homo sapiens, UniProt Q13554); experiment: Off-Target Kinase Profiling; assay type: biochemical; conditions: 10 μM; ATP near Km
T20 construct: purchased Millipore (KinaseProfiler service)
Procedure, shortened: as §1

ErbB4 = target: T21, ErbB4 (Homo sapiens, UniProt Q15303); experiment: Off-Target Kinase Profiling; assay type: biochemical; conditions: 10 μM; ATP near Km
T21 construct: purchased Millipore, Inc. (KinaseProfiler service)
Procedure, shortened: as §1

TSSK1 = target: T22, TSSK1 (Homo sapiens, UniProt Q9BXA7); experiment: Off-Target Kinase Profiling; assay type: biochemical; conditions: 10 μM; ATP near Km
T22 construct: purchased Millipore, Inc. (KinaseProfiler service)
Procedure, shortened: as §1

VRK2 = target: T23, VRK2 (Homo sapiens, UniProt Q86Y07); experiment: Off-Target Kinase Profiling; assay type: biochemical; conditions: 10 μM; ATP near Km
T23 construct: purchased Millipore, Inc. (KinaseProfiler service)
Procedure, shortened: as §1

PTK5 = target: T24, PTK5 (Homo sapiens, UniProt P42685); experiment: Off-Target Kinase Profiling; assay type: biochemical; conditions: 10 μM; ATP near Km
T24 construct: purchased Millipore, Inc. (KinaseProfiler service)
Procedure, shortened: as §1

[1] = target: T25, His-tagged recombinant human TrkA (Homo sapiens, UniProt P04629); experiment: TrkA Kinase Binding Assay (LanthaScreen Eu); conditions: averaged IC50; TR-FRET binding, 60 min, 22° C.; read-out: TrkA Enzyme IC50
T25 construct: 6HIS tagged cytoplasmic domain from Invitrogen, Catalog No. PV3144; purchased Invitrogen PV3144
Procedure, shortened: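 TR-FRET tracer displacement: 5 nM His-tagged TrkA cytoplasmic domain with 4 nM Tracer 236, biotinylated anti-His and Eu-streptavidin in pH 7.5 MOPS buffer, 2% DMSO, 60 min at 22 °C. 665/615 nm emission ratio gave percent of control; IC50 from four-parameter fit.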

T15 sequence (Q9NYY3 whole entry): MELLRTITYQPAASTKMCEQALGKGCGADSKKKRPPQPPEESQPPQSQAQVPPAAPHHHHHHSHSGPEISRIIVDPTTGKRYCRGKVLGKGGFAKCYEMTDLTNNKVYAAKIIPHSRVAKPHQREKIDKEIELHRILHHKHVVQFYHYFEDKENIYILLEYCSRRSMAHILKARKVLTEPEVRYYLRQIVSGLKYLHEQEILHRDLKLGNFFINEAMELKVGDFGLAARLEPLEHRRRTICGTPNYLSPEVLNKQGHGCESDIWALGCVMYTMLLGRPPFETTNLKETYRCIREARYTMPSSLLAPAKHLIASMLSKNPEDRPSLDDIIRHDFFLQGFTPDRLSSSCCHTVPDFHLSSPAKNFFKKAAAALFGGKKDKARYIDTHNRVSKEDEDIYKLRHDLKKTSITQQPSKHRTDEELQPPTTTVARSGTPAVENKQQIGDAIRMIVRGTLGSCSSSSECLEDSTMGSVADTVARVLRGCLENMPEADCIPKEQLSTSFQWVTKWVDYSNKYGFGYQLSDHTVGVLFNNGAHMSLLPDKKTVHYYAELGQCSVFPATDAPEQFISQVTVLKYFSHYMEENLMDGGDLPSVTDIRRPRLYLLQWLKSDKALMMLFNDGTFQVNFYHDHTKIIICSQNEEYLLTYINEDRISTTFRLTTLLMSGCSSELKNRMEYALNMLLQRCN
T18 sequence (O60285 whole entry): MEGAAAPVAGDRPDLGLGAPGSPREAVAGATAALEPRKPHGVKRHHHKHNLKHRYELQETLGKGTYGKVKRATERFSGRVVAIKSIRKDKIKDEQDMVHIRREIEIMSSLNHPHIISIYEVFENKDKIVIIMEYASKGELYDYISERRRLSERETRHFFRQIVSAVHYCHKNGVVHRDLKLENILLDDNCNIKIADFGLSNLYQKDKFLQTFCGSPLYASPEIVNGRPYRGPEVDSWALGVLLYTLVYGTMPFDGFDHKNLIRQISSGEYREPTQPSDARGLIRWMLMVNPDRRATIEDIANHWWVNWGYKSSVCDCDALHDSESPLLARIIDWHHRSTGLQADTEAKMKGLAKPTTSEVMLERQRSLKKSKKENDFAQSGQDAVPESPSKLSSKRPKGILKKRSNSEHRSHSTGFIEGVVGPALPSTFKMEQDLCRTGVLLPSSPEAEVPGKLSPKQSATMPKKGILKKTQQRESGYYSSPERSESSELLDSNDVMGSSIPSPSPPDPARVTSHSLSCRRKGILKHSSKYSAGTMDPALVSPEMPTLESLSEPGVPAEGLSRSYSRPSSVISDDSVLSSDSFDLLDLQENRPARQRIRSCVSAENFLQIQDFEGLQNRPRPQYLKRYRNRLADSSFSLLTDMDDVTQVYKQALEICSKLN
T25 sequence (P04629 440-796 limits assumed): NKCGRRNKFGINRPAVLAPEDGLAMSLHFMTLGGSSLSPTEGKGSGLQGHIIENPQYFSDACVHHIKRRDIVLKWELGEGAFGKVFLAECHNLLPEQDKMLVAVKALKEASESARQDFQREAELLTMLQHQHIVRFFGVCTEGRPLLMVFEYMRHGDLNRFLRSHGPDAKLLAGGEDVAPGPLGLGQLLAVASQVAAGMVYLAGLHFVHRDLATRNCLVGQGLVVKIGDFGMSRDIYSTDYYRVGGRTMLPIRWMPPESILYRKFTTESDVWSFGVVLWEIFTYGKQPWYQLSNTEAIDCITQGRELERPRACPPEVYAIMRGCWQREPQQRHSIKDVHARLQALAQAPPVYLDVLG
T7 sequence (P49841 whole entry): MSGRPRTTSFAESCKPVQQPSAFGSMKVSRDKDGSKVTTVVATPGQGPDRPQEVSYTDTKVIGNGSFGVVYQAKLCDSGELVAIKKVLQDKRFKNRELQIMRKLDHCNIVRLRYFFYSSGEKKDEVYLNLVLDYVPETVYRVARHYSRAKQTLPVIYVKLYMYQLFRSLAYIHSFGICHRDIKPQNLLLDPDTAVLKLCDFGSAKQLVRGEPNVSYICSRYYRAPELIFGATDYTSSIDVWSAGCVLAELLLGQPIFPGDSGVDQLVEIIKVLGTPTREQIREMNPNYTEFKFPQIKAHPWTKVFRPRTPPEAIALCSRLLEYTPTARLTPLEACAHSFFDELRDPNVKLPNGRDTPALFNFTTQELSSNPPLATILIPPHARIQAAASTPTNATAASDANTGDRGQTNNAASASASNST
T17 sequence (Q15759 whole entry): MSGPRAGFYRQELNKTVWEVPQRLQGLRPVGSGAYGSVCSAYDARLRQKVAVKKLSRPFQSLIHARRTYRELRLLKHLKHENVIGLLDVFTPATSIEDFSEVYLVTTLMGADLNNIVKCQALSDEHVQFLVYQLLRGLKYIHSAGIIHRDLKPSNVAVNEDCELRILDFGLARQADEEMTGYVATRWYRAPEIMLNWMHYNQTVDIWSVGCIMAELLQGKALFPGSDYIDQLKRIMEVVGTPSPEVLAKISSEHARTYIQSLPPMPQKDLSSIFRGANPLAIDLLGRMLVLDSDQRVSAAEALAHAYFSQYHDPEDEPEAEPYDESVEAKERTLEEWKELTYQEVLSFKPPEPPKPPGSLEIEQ
T9 sequence (Q92630 whole entry): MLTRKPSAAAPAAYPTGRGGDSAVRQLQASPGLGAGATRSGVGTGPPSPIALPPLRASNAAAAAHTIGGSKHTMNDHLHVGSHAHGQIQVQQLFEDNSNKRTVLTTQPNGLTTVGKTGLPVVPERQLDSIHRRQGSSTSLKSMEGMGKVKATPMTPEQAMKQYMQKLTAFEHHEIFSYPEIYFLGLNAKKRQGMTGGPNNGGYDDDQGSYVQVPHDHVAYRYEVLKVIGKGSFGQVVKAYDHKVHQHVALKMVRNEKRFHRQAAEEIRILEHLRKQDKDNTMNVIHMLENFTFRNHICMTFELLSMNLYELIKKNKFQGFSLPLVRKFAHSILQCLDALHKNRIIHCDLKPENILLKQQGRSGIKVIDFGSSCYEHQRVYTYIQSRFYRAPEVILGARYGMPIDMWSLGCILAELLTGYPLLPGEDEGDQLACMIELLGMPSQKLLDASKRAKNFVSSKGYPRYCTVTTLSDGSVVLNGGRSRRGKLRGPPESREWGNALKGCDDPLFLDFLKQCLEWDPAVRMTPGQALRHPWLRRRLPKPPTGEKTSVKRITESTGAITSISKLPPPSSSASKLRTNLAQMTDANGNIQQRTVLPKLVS
T1 sequence (P35968 20-1356): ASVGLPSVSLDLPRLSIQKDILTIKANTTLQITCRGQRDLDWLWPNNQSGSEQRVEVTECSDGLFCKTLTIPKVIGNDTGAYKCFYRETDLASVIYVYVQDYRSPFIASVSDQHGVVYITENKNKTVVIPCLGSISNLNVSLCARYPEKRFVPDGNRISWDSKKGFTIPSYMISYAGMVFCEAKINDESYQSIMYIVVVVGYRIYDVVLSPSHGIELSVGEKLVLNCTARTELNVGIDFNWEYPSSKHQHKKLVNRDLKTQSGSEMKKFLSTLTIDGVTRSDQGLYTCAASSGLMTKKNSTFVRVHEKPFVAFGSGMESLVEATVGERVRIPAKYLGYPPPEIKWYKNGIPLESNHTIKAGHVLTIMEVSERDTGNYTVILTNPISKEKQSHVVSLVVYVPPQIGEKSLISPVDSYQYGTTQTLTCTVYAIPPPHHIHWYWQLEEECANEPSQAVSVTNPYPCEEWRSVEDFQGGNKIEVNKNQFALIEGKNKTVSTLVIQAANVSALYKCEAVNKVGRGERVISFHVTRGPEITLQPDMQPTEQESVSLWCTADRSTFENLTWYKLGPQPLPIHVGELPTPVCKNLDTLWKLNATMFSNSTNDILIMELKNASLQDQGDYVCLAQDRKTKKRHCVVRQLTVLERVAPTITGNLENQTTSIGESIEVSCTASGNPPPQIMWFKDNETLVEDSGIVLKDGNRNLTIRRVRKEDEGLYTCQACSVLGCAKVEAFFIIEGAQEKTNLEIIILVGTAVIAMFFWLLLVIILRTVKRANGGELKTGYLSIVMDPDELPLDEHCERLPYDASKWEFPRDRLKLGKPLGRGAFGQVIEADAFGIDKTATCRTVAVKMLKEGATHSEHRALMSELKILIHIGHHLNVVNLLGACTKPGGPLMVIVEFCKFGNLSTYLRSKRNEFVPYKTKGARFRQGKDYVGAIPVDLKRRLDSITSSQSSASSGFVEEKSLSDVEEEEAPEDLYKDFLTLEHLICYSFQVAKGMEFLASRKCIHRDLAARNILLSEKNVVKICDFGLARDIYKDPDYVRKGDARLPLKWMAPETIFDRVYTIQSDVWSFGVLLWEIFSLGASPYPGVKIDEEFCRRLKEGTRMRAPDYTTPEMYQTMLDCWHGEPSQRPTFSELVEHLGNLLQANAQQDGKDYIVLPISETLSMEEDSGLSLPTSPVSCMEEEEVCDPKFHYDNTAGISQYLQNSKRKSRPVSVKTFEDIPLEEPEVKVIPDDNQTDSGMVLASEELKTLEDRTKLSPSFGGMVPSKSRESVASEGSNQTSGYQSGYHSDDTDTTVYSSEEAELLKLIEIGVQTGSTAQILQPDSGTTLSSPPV
T14 sequence (P42681 whole entry): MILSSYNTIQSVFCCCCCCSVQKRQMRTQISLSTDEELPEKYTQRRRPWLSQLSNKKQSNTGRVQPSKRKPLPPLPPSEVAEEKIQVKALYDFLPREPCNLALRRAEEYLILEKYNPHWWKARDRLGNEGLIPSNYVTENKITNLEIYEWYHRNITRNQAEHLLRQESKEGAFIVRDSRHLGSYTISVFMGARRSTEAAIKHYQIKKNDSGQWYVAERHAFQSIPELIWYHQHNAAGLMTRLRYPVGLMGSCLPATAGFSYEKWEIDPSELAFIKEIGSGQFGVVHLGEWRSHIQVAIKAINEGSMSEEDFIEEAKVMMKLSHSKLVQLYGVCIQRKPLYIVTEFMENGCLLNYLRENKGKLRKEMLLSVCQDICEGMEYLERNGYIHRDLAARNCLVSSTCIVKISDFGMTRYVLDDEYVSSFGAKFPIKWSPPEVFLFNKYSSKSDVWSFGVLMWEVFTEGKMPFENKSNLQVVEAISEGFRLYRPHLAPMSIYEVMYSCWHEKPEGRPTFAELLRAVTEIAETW

Row | Structure (SMILES) | Avg POC KDR (KDR) | Avg POC MKNK2 (MKNK2) | Avg POC Fyn (Fyn) | Avg POC NEK11 (NEK11) | Avg POC ULK2 (ULK2) | Avg POC PKCtheta (PKCtheta) | Avg POC GSK3beta (GSK3beta) | Avg POC PKCbetaI (PKCbetaI) | Avg POC DYRK2 (DYRK2) | Avg POC HIPK1 (HIPK1) | Avg POC GSK3alpha (GSK3alpha) | Avg POC Axl (Axl) | Avg POC IKKbeta (IKKbeta) | Avg POC Txk (Txk) | Avg POC Plk2 (Plk2) | Avg POC IR Activated (IR Activated) | Avg POC p38beta (p38beta) | Avg POC ARK5 (ARK5) | Avg POC MAPKAP-K5 (MAPKAP-K5) | Avg POC CAMK2b (CAMK2b) | other results
1 | COCc1ccc(C2CCC2)c(CNC(=O)Nc2c(C)c(-c3cnc(C)nc3)nn2-c2ccccc2)c1 [Example 10, 1-(2-cyclobutyl-5-(methoxymethyl)benzyl)-3-(4-methyl-3-(2-methylpyrimidin-5-yl)-1-phenyl-1H-pyrazol-5-yl)urea] | 97.5 POC | 98 POC | 103 POC | 102 POC | 89 POC | 94 POC | 115 POC | 104.5 POC | 92.5 POC | 100.5 POC | 105 POC | 104.5 POC | 104.5 POC | 104.5 POC | 101 POC | 99 POC | 101.5 POC | 87 POC | 92 POC | 94 POC | Avg POC ErbB4 (ErbB4): 108.5 POC; Avg POC TSSK1 (TSSK1): 60 POC; Avg POC VRK2 (VRK2): 90 POC; Avg POC PTK5 (PTK5): 87.5 POC; IC50 [1]: < 100 nM
2 | COCc1ccc(C(F)(F)F)c(CNC(=O)Nc2c(C)c(-c3cnn(C)c3)nn2-c2ccccc2)c1 [Example 33, 1-(1′,4-dimethyl-1-phenyl-1H,1′H-[3,4′-bipyrazol]-5-yl)-3-(5-(methoxymethyl)-2-(trifluoromethyl)benzyl)urea] | 139.5 POC | 101.5 POC | 113 POC | 108 POC | 98.5 POC | 112.5 POC | 136.5 POC | 111.5 POC | 91.5 POC | 115.5 POC | 161 POC | 117 POC | 120.5 POC | 156.5 POC | 102 POC | 103.5 POC | 111.5 POC | 85.5 POC | 97.5 POC | 96 POC | Avg POC ErbB4 (ErbB4): 130.5 POC; Avg POC TSSK1 (TSSK1): 80 POC; Avg POC VRK2 (VRK2): 90.5 POC; Avg POC PTK5 (PTK5): 92.5 POC; IC50 [1]: < 100 nM
